Data set [1] concerns the target LINC-PINT. The data set can be described thus: HEK293-TLR7, 100 nM ASO, then resiquimod.
Data set [2] has as its target LINC-PINT. The data set can be described thus: HEK293-TLR8, 100 nM ASO, then resiquimod.
For data set [3], the target named is EGFR. The data set can be described thus: HEK293-TLR7, 100 nM ASO, then resiquimod.
Data set [4] concerns the target EGFR. The data set can be described thus: HEK293-TLR8, 100 nM ASO, then resiquimod.

Strand notation (5' to 3'): a small letter for the sugar, then the base; units joined by * are phosphorothioate-linked, units joined directly phosphodiester-linked; [ ] holds rarer units or linkages, { } end groups; capitals alone tell only the bases. d = 2'-deoxy (DNA); m = 2'-O-methyl

The substance “mA*mA*mA*mA*mA*dG*dT*dG*dG*dG*dA*dA*dA*dT*dA*mA*mA*mG*mG*mU” registered a TLR7 signal (NF-kB luciferase) (% of resiquimod alone) in the data set with LINC-PINT [1] of 28.8. Also, in the data set with LINC-PINT [2], the TLR8 potentiation (NF-kB luciferase) (fold of resiquimod alone) amounted to 1.34.

Substance “mA*mA*mA*mA*mG*dT*dG*dG*dG*dA*dA*dA*dT*dA*dA*mA*mG*mG*mU*mU” returned a TLR7 signal (NF-kB luciferase) (% of resiquimod alone) in the data set with LINC-PINT [1] of 30.9. Moreover, the TLR8 potentiation (NF-kB luciferase) (fold of resiquimod alone) with LINC-PINT [2] was determined as 1.48.

In the data set with LINC-PINT [1], “mA*mA*mA*mG*mU*dC*dA*dA*dA*dA*dA*dG*dA*dA*dA*mA*mA*mC*mU*mG” came in with a TLR7 signal (NF-kB luciferase) (% of resiquimod alone) of 45.6. Besides, in the data set with LINC-PINT [2], the TLR8 potentiation (NF-kB luciferase) (fold of resiquimod alone) was 1.62.

“mA*mA*mA*mU*mG*dT*dC*dC*dT*dG*dG*dC*dC*dC*dT*mC*mA*mC*mU*mG” came in with a TLR7 signal (NF-kB luciferase) (% of resiquimod alone) with LINC-PINT [1] of 46.5. For the same substance, the TLR8 potentiation (NF-kB luciferase) (fold of resiquimod alone) with LINC-PINT [2] came to 1.45.

Turning to “mA*mC*mA*mG*mU*dG*dT*dT*dG*dA*dG*dA*dT*dA*dC*mU*mC*mG*mG*mG”, the TLR7 signal (NF-kB luciferase) (% of resiquimod alone) with EGFR [3] was determined as 47.6. In the data set with EGFR [4], the TLR8 potentiation (NF-kB luciferase) (fold of resiquimod alone) was 2.73.

The substance “mA*mG*mG*mU*mG*dT*dC*dC*dT*dT*dG*dC*dA*dC*dG*mU*mG*mG*mC*mU” came in with a TLR7 signal (NF-kB luciferase) (% of resiquimod alone) in the data set with EGFR [3] of 76.4. Moreover, the TLR8 potentiation (NF-kB luciferase) (fold of resiquimod alone) in the data set with EGFR [4] was 1.27.

Consider “mA*mG*mU*mA*mA*dA*dA*dA*dG*dC*dT*dT*dT*dT*dG*mA*mA*mG*mU*mG”, for which the TLR7 signal (NF-kB luciferase) (% of resiquimod alone) with EGFR [3] was 48.3. Further, in the data set with EGFR [4], the TLR8 potentiation (NF-kB luciferase) (fold of resiquimod alone) stood at 2.7.

As for “mA*mU*mC*mC*mA*dC*dC*dA*dC*dG*dT*dC*dG*dT*dC*mC*mA*mU*mG*mU”, in the data set with EGFR [3], the TLR7 signal (NF-kB luciferase) (% of resiquimod alone) worked out at 34.7. Besides, in the data set with EGFR [4], the TLR8 potentiation (NF-kB luciferase) (fold of resiquimod alone) came out at 1.06.

As for “mA*mU*mG*mC*mC*dA*dT*dC*dC*dA*dC*dT*dT*dG*dA*mU*mA*mG*mG*mC”, the TLR7 signal (NF-kB luciferase) (% of resiquimod alone) with EGFR [3] came to 29.3. For the same substance, the TLR8 potentiation (NF-kB luciferase) (fold of resiquimod alone) with EGFR [4] came out at 1.16.

For “mA*mU*mG*mU*mC*dC*dC*dG*dC*dC*dA*dC*dT*dG*dG*mA*mU*mG*mC*mU”, the TLR7 signal (NF-kB luciferase) (% of resiquimod alone) with EGFR [3] was found to be 71.7. Further, the TLR8 potentiation (NF-kB luciferase) (fold of resiquimod alone) with EGFR [4] turned out to be 0.84.

On to “mA*mU*mU*mA*mC*dT*dT*dT*dA*dA*dA*dA*dG*dC*dA*mA*mA*mA*mG*mG”, for which, in the data set with EGFR [3], the TLR7 signal (NF-kB luciferase) (% of resiquimod alone) came to 42.9. Besides, in the data set with EGFR [4], the TLR8 potentiation (NF-kB luciferase) (fold of resiquimod alone) was found to be 2.17.

Turning to “mC*mA*mA*mG*mG*dC*dC*dC*dT*dT*dC*dG*dC*dA*dC*mU*mU*mC*mU*mU”, the TLR7 signal (NF-kB luciferase) (% of resiquimod alone) in the data set with EGFR [3] came out at 79.4. For the same substance, the TLR8 potentiation (NF-kB luciferase) (fold of resiquimod alone) in the data set with EGFR [4] was 2.42.

On to “mC*mA*mC*mU*mG*dG*dG*dT*dG*dT*dA*dA*dG*dA*dG*mG*mC*mU*mC*mC”, for which the TLR7 signal (NF-kB luciferase) (% of resiquimod alone) with EGFR [3] is 87.3. For the same substance, the TLR8 potentiation (NF-kB luciferase) (fold of resiquimod alone) with EGFR [4] is 2.44.

On to “mC*mA*mG*mG*mU*dG*dT*dC*dC*dT*dT*dG*dC*dA*dC*mG*mU*mG*mG*mC”, for which, in the data set with EGFR [3], the TLR7 signal (NF-kB luciferase) (% of resiquimod alone) worked out at 55.4. Further, the TLR8 potentiation (NF-kB luciferase) (fold of resiquimod alone) in the data set with EGFR [4] is 1.95.

Regarding “mC*mG*mG*mC*mA*dT*dC*dC*dA*dC*dC*dA*dC*dG*dT*mC*mG*mU*mC*mC”, the TLR7 signal (NF-kB luciferase) (% of resiquimod alone) with EGFR [3] worked out at 56.7. The TLR8 potentiation (NF-kB luciferase) (fold of resiquimod alone) with EGFR [4] is 1.33.

“mC*mU*mG*mU*mG*dA*dT*dC*dT*dT*dG*dA*dC*dA*dT*mG*mC*mU*mG*mC”: the TLR7 signal (NF-kB luciferase) (% of resiquimod alone) with EGFR [3] is 53.3. For the same substance, the TLR8 potentiation (NF-kB luciferase) (fold of resiquimod alone) in the data set with EGFR [4] came to 3.44.

As for “mC*mU*mU*mG*mC*dA*dC*dG*dT*dG*dG*dC*dT*dT*dC*mG*mU*mC*mU*mC”, the TLR7 signal (NF-kB luciferase) (% of resiquimod alone) with EGFR [3] came out at 28.1. The TLR8 potentiation (NF-kB luciferase) (fold of resiquimod alone) with EGFR [4] worked out at 3.06.

With “mC*mU*mU*mU*mU*dG*dA*dA*dG*dT*dG*dA*dA*dG*dT*mA*mA*mA*mA*mG”, the TLR7 signal (NF-kB luciferase) (% of resiquimod alone) with EGFR [3] is 79.8. Also, in the data set with EGFR [4], the TLR8 potentiation (NF-kB luciferase) (fold of resiquimod alone) was 1.98.

Consider “mC*mU*mU*mU*mU*dG*dG*dG*dA*dA*dC*dG*dG*dA*dC*mU*mG*mG*mU*mU”, for which the TLR7 signal (NF-kB luciferase) (% of resiquimod alone) with EGFR [3] is 53.2. The TLR8 potentiation (NF-kB luciferase) (fold of resiquimod alone) with EGFR [4] worked out at 1.91.

Regarding “mG*mA*mA*mG*mU*dG*dA*dA*dG*dT*dA*dA*dA*dA*dG*mG*mA*mG*mA*mA”, in the data set with EGFR [3], the TLR7 signal (NF-kB luciferase) (% of resiquimod alone) was found to be 35.6. Further, the TLR8 potentiation (NF-kB luciferase) (fold of resiquimod alone) with EGFR [4] was 0.57.

Take “mG*mC*mA*mA*mG*dG*dC*dC*dC*dT*dT*dC*dG*dC*dA*mC*mU*mU*mC*mU”: the TLR7 signal (NF-kB luciferase) (% of resiquimod alone) with EGFR [3] turned out to be 33. For the same substance, the TLR8 potentiation (NF-kB luciferase) (fold of resiquimod alone) in the data set with EGFR [4] turned out to be 2.55.

As to “mG*mG*mA*mG*mA*dT*dT*dT*dC*dA*dG*dA*dG*dC*dA*mG*mC*mU*mU*mC”, in the data set with EGFR [3], the TLR7 signal (NF-kB luciferase) (% of resiquimod alone) worked out at 36.2. The TLR8 potentiation (NF-kB luciferase) (fold of resiquimod alone) with EGFR [4] was 1.25.

“mG*mG*mC*mA*mU*dC*dC*dA*dC*dC*dA*dC*dG*dT*dC*mG*mU*mC*mC*mA” showed a TLR7 signal (NF-kB luciferase) (% of resiquimod alone) with EGFR [3] of 34.9. Besides, the TLR8 potentiation (NF-kB luciferase) (fold of resiquimod alone) with EGFR [4] was 0.85.

In the data set with EGFR [3], “mG*mG*mG*mA*mC*dA*dC*dT*dT*dC*dT*dT*dC*dA*dC*mG*mC*mA*mG*mG” had a TLR7 signal (NF-kB luciferase) (% of resiquimod alone) of 52.1. In the data set with EGFR [4], the TLR8 potentiation (NF-kB luciferase) (fold of resiquimod alone) was determined as 1.24.

Source of the values: the OligoGym collection.
